Experiments:
lipoamide = compound: NC(=O)CCCCC1CCSS1 [lipoamide]; assay: thermal stability z-score vs DMSO; higher = more thermally stabilized by treatment; conditions: HeLa, lipoamide concentration 100 µM
Method: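 Cellular thermal proteome profiling in HeLa cells. Cells were treated with 100 µM lipoamide for 1 h, with or without 1 mM arsenate for a further 1 h, then heated to ten temperatures (37-66.3 °C), and soluble protein was quantified by TMT mass spectrometry relative to 0.1% DMSO controls. The thermal stability score (sum of log2 fold changes minus the abundance score) was transformed to a z-score; mean of n = 3 experiments.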

potassium arsenate = compound: O=[As]([O-])(O)O.[K+] [potassium arsenate]; assay: as above; conditions: HeLa; arsenate concentration 1 mM
Method: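 Cellular thermal proteome profiling in HeLa cells treated with 1 mM arsenate for 1 h (DMSO pretreatment), heated to ten temperatures (37-66.3 °C). Soluble protein was quantified by TMT mass spectrometry relative to DMSO controls; the thermal stability score was transformed to a z-score; mean of n = 3 experiments.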

[1] = arsenate co-treatment: 1 mM arsenate 1 h
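Note: each temperature applied for 3 min, abundance score taken as mean log2 fold change at the two lowest temperatures, z-score obtained by mean subtraction and division by SD.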

Sequence of UniProt O15155 (O15155 whole entry): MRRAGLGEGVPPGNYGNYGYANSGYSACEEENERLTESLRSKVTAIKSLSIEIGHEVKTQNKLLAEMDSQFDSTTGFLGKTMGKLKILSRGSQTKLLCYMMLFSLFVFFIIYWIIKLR
Sequence of UniProt Q9NXR7 (Q9NXR7 whole entry): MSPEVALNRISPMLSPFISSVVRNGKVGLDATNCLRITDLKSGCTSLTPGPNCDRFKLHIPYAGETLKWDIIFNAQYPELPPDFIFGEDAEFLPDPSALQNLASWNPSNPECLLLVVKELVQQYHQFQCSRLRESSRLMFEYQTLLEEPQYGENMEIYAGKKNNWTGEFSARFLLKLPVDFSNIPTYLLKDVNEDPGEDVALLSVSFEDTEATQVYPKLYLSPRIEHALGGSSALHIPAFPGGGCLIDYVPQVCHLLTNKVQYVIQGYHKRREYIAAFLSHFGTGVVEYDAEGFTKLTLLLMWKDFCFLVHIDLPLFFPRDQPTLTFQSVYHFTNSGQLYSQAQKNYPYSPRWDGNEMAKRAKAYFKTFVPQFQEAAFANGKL
Sequence of UniProt O95453 (O95453 whole entry): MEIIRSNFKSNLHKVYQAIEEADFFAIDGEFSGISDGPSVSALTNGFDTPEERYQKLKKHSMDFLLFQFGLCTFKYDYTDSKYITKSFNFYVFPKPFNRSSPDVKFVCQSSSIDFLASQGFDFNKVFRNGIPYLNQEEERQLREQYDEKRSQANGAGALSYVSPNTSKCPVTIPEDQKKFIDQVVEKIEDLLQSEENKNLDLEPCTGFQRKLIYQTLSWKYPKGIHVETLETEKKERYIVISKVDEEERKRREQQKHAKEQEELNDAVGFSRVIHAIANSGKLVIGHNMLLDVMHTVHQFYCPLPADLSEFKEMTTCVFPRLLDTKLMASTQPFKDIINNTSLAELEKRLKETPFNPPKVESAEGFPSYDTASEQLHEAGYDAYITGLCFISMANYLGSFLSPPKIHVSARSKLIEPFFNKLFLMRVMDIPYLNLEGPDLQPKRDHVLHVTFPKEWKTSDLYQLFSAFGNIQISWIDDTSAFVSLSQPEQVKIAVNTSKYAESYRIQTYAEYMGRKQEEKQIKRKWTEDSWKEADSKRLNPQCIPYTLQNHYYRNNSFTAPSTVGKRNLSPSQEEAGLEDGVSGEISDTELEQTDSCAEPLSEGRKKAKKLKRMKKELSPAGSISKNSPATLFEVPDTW
Sequence of UniProt Q02127 (Q02127 whole entry): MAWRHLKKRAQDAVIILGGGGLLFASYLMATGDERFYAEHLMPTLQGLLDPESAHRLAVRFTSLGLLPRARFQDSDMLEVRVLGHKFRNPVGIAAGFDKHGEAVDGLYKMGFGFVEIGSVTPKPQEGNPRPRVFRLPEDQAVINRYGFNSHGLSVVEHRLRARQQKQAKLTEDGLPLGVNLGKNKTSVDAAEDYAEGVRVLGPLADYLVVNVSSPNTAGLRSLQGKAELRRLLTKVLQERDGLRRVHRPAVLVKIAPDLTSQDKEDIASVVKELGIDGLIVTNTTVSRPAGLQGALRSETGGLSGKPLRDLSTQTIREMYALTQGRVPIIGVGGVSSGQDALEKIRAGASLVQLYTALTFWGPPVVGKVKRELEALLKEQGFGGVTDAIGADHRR
Sequence of UniProt Q8IX90 (Q8IX90 whole entry): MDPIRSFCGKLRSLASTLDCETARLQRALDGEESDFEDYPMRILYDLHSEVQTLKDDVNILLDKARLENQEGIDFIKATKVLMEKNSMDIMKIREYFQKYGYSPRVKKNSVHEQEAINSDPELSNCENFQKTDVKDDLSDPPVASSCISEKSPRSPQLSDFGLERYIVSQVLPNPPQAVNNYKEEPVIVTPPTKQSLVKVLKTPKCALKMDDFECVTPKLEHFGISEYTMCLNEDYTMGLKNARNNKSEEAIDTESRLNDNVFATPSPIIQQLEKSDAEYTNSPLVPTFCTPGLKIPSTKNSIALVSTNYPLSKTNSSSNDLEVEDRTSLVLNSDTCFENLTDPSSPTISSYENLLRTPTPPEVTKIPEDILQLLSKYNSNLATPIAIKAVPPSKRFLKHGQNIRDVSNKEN
Sequence of UniProt P46087 (P46087 whole entry): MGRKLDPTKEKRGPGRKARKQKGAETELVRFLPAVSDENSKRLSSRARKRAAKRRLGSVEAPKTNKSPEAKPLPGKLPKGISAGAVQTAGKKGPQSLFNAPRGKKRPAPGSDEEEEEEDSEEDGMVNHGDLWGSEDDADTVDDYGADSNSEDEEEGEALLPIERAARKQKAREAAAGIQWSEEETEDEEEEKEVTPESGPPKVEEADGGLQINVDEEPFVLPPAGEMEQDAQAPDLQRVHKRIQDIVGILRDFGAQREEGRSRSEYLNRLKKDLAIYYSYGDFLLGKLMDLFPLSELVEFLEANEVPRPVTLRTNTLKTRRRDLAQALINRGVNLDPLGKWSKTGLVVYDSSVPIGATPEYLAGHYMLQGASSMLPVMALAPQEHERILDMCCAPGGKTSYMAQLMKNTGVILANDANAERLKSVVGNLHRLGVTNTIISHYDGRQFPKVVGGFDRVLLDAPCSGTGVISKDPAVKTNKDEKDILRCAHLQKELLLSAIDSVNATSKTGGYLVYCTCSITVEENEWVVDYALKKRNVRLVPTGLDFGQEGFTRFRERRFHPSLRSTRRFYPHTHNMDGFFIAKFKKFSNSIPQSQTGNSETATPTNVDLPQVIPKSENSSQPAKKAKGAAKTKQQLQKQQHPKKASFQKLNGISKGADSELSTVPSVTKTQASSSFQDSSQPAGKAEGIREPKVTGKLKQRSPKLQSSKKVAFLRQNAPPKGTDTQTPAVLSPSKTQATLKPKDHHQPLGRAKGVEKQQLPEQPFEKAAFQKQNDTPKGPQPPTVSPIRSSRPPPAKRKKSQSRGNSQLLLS
Sequence of UniProt Q9UL63 (Q9UL63 whole entry): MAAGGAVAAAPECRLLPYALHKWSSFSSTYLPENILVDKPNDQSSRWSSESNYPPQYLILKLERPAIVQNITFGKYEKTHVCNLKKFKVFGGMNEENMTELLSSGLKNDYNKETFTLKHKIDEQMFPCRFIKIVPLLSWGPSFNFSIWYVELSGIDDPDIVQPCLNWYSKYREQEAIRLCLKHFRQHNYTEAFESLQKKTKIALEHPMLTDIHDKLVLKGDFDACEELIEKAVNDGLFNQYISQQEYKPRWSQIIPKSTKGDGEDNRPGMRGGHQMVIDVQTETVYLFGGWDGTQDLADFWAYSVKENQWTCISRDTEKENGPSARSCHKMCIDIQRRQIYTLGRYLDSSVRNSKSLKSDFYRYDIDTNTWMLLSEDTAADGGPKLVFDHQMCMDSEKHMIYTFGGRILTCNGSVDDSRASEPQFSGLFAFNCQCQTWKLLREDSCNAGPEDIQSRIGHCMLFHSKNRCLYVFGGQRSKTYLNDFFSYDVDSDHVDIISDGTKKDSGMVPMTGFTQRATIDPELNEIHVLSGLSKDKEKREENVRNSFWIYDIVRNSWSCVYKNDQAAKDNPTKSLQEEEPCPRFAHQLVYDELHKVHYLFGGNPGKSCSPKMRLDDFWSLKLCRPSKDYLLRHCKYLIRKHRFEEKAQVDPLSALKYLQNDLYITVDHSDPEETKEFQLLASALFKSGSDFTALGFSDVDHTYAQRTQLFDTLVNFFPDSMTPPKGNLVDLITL
Sequence of UniProt P04899 (P04899 whole entry): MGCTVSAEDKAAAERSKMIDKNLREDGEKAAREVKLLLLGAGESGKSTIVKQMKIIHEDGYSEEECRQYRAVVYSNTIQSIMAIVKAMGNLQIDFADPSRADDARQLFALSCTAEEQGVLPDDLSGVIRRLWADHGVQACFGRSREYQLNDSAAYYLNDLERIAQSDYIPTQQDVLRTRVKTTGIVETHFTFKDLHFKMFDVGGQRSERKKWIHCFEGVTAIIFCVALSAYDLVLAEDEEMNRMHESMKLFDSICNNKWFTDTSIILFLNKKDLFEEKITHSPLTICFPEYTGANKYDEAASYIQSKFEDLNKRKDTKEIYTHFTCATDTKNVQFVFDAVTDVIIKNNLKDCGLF
Sequence of UniProt Q9UK73 (Q9UK73 whole entry): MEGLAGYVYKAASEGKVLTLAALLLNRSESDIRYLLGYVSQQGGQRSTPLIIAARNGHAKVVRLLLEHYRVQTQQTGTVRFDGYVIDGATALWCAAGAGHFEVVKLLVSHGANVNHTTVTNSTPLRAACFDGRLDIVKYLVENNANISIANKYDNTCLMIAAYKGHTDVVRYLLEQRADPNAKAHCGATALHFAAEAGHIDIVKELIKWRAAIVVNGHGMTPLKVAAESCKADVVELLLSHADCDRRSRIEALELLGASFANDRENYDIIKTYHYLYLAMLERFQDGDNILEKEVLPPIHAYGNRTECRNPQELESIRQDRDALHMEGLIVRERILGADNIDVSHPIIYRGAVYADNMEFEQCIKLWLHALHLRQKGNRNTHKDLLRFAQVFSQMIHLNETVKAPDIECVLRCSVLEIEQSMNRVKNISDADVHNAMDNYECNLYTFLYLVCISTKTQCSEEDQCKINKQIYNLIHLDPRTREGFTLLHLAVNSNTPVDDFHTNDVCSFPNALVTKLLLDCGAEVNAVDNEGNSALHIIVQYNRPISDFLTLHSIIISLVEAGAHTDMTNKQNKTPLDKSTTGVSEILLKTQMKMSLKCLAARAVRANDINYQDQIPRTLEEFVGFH
Sequence of UniProt Q7L5D6 (Q7L5D6 whole entry): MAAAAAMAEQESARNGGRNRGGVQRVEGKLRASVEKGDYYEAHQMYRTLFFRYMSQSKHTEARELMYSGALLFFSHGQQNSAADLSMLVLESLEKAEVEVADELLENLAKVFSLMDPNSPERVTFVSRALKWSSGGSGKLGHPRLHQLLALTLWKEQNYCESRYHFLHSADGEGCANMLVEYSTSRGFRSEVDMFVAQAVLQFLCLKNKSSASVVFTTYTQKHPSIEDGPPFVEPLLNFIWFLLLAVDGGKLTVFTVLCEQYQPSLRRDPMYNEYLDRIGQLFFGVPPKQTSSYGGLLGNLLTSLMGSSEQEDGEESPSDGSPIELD
Sequence of UniProt Q12974 (Q12974 whole entry): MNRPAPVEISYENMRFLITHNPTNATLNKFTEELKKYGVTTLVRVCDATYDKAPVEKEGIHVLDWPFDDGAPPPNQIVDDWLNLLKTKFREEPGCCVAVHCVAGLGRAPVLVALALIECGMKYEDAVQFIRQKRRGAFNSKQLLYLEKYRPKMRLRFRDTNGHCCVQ

Row | Target | thermal stability z-score (lipoamide; [1]) | thermal stability z-score (lipoamide; arsenate co-treatment: none) | thermal stability z-score (potassium arsenate)
1 | GNAI2 (UniProt P04899) | 0.83 | 0.313 | -0.276
2 | SKP2 (UniProt Q13309) | -0.219 | -0.122 | -0.872
3 | MON1B (UniProt Q7L1V2) | 0.955 | 0.582 | 0.685
4 | ADK (UniProt P55263) | -0.131 | -0.279 | -1.35
5 | KBTBD6 (UniProt Q86V97) | -0.502 | 0.182 | -1.11
6 | BET1 (UniProt O15155) | 0.642 | 1.03 | 1.11
7 | ZNF346 (UniProt Q9UL40) | -0.17 | 0.0809 | 0.04
8 | NOP2 (UniProt P46087) | 0.976 | -0.163 | -0.016
9 | REEP6 (UniProt Q96HR9) | 0.703 | 0.825 | 0.0059
10 | SPTBN1 (UniProt Q01082) | 0.502 | 0.309 | -1.61
11 | MKLN1 (UniProt Q9UL63) | -0.128 | -0.114 | -0.403
12 | RPS21 (UniProt P63220) | 0.253 | 0.512 | -0.196
13 | MTHFD2 (UniProt P13995) | -1.43 | 0.0012 | 0.474
14 | NPR1 (UniProt P16066) | -0.594 | -0.153 | 0.119
15 | PSMD7 (UniProt P51665) | -0.802 | -0.0777 | -0.475
16 | TKT (UniProt P29401) | 0.488 | 0.386 | -0.045

Row | Target | thermal stability z-score (lipoamide; [1]) | thermal stability z-score (lipoamide; arsenate co-treatment: none) | thermal stability z-score (potassium arsenate)
17 | CPT2 (UniProt P23786) | -0.296 | 0.0116 | 0.228
18 | FEM1B (UniProt Q9UK73) | 0.128 | 0.146 | -1.27
19 | BRE (UniProt Q9NXR7) | 0.462 | -0.15 | 0.319
20 | FOXP4 (UniProt Q8IVH2) | -0.605 | -0.281 | 0.363
21 | GET4 (UniProt Q7L5D6) | -0.844 | -0.0598 | 0.752
22 | ARFIP1 (UniProt P53367) | 0.444 | 0.144 | 0.0115
23 | PARN (UniProt O95453) | 0.181 | -0.273 | 0.95
24 | PTP4A2 (UniProt Q12974) | 1.78 | 1.15 | 0.861
25 | LNPEP (UniProt Q9UIQ6) | 0.328 | 0.227 | 0.249
26 | DCAF15 (UniProt Q66K64) | 0.165 | -0.178 | -0.174
27 | WBP4 (UniProt O75554) | 1.32 | 0.617 | -2.19
28 | SKA3 (UniProt Q8IX90) | -0.0726 | 0.132 | -0.18
29 | PRELID3B (UniProt Q9Y3B1) | -0.72 | -0.844 | -0.684
30 | GNAI3 (UniProt P08754) | 0.0735 | 0.0764 | -1.24
31 | DHODH (UniProt Q02127) | 0.213 | 0.162 | -0.752
